US4394390A, “Nasal dosage forms of propranol” (University of Kentucky Research Foundation, priority 1980, dated 1983)

Columns and labels:
[1] = cited from earlier work
[2] = rat, in vivo
in vivo [3] = settings: rat
[4] = Bioavailability of propranolol from nasal solution vs oral and intravenous administration in rats (blood levels, AUC); settings: rat, FIG. 1
in vivo [5] = settings: dog
[6] = Crossover study of propranolol plasma levels after nasal, intravenous and oral administration in dogs

SMILES: CC(C)NCC(O)COc1cccc2ccccc12 (centres unmarked) [propranolol, 1-(isopropylamino)-3-(1-naphthyloxy)-2-propanol]
- variation of plasma levels among subjects ([1]; human, intravenous, 10 mg, same five subjects): varied only two fold
- variation of peak plasma levels among subjects ([1]; human, oral, 80 mg, five subjects): varied seven fold
- bioavailability (ratio of AUC of 80 mg oral dose and 10 mg I.V. dose) ([1]; human, oral, lowest in some subjects): 16%
- absorption from oral dosage forms ([1]; oral dosage forms): inefficiently and variably absorbed from oral dosage forms
- dependence of area under the blood level curve on dose [2]: directly proportional to the dose
- oral bioavailability, AUC ratio (oral/nasal)×100 ([2]; 240 min): about 15%
- Tmax (in vivo [3]): ≤ 5 min
- bioavailability at 4 h (in vivo [3]; Ratio (AUC nasal vs I.V.)): 99.6%
- bioavailability at 4 h (in vivo [3]; po, Ratio (AUC oral vs I.V.)): 17.9%
- bioavailability at 4 h (in vivo [3]; po, oral bioavailability, AUC ratio (oral/I.V.)×100): ~15%
- blood level after nasal administration compared with intravenous administration ([4]; nasal 1 mg vs I.V. 1 mg): identical to the blood level after intravenous administration
- absorption from the nasal mucosa ([4]; nasal): very rapidly absorbed from the nasal mucosa
- blood level after oral administration ([4]; oral, same dosage level (1 mg), compared with nasal and I.V.): considerably lower blood levels
- bioavailability at 8 h (in vivo [5]; AUC(Nasal)/AUC(I.V.)): 96.7%
- bioavailability (in vivo [5]; bioavailability from the nasal route relative to the intravenous route): 99.1%
- bioavailability at 8 h (in vivo [5]; po, AUC(P.O.)/AUC(I.V.)): 8.9%
- bioavailability (in vivo [5]; po, bioavailability from the oral route relative to the intravenous route): 7.4%
- plasma levels after intravenous and nasal administration compared ([6]; dog, 20 mg, nasal vs I.V., FIG. 2): virtually identical
- plasma levels after oral administration ([6]; dog, 20 mg, oral compared with I.V. and nasal, FIG. 2): considerably lower plasma levels
- absorption from the nasal mucosa into systemic blood ([6]; nasal, conclusion from dog study and rat study): rapidly absorbed from the nasal mucosa into systemic blood without the first pass metabolism
